Reference: PMC8774489, “[(WR)8WKβA]-Doxorubicin Conjugate: A Delivery System to Overcome Multi-Drug Resistance against Doxorubicin” (Cells, 2022)
Where two headings read alike, the source gives them in different places. Peptide text beside a SMILES is read from it.

Legend:
MCF-7 cells = experiment: In vitro cytotoxicity (MTS) assay in MCF-7 cells; format: cell-based, human; details: for reduction of MCF-7 cell proliferation: mean n = 3
Method: (§1) The incubation was continued for 3 h.

H9C2 cells = experiment: Confocal microscopy uptake in H9C2 heart cells; format: cell-based, rat; details: H9C2, 5 µM (mixture: Dox 5 µM with [WR]9 5 or 10 µM), 24 h
Method: (§2) MDA-MB-231, SK-OV-3, MES-SA/MX2, and H9C2 cells (7 × 10^4 cells/well) were seeded with a medium on a coverslip 24 h prior to the experiment in six well plates. After 24 h, the medium was changed with opti-MEM. The cells were treated with Dox and peptide-Dox conjugate (5 μM) in opti-MEM for 24 h. After 24 h incubation, the media were removed, and cells were washed three times with PBS in each well. Then, the cells were fixed with 3.7% formaldehyde for 10 min, followed by washing three times with PBS for 5 min (pH 7.6). DAPI (40 µL) for staining the nuclei was placed on a microscope slide, and it was covered with the coverslip with the cell-attached side facing down. The slides were left standing horizontally in a dark place with airflow to allow drying faster. The cells were photographed using Nikon Instruments A1 Confocal Laser Microscope Series (Nikon Instruments Inc, NY, USA) and NIS-Elements software (AR 4.30.02, 64 bit). The scan mode was selected as Galvano. The magnification and resolution were set at 40× and 1024, respectively.

MES-SA/MX2 cells [1] = experiment: In vitro cytotoxicity (MTS) assay in Dox-resistant MES-SA/MX2 cells; format: cell-based
Method: as §1

[2] = system: K562/ADR (human erythroleukemic cells); parameters: method as in PMID 11261883; details: resistant K562/ADR cells; cited from earlier work
Source text: Different linear CPPs such as penetratin [15], TAT [18], polyarginine, and maurocalcine have been conjugated with Dox.

SK-OV-3 cells [3] = format: cell-based, human; details: 5 µM, 72 h, MTS, mean n = 3
Method: as §1

MDA-MB-231 cells [4] = format: cell-based, human; details: MTS; for MDA-MB-231 cell viability: 5 µM, mean n = 3
Method: as §1

[5] = molecular transporter of fluorescence-labeled phosphopeptide; cited from earlier work
Source text: Recently, we have reported amphiphilic cyclic CPPs composed of increasing numbers of W and R residues [WR]6–9, and compared their efficiency with the previously published cyclic [WR]5 in improving the cellular uptake of cell-impermeable compounds and their molecular transporter efficiency.

MES-SA/MX2 cells [6] = experiment: FACS cellular uptake with endocytosis inhibitors in MES-SA/MX2 cells; format: cell-based; details: MES-SA/MX2, conjugate 5 µM, 3 h, flow cytometry, n = 3
MDA-MB-231 cells [7] = experiment: Differential nuclear and cytoplasmic extraction of Dox, HPLC; format: cell-based, human; details: 50 μM, 4 h exposure, MDA-MB-231, nuclear extract, HPLC at 490 nm
Method: In order to confirm nuclear delivery of peptide-conjugated Dox, in addition to confocal microscopy, we performed a differential nuclear and cytoplasmic extraction. […] The cells were then pelleted at 2000 rpm for 5 min. After removing the supernatant, the cells were resuspended in Dounce buffer containing protease inhibitors. The cell suspension to be used was incubated on ice for 15 min before being spiked with cold 10% NP-40 and vortexed for 10 s. The suspension was centrifuged at 10,000 rpm for 10 min at 4 °C to pellet the nuclei. The supernatant was isolated for cytoplasmic extraction. The nuclear pellet was washed in cold PBS twice and centrifuged to remove the supernatant. The isolated nuclei were then lysed using RIPA buffer containing protease inhibitors. The nuclear and cytoplasmic extractions were analyzed by analytical HPLC to differentially quantify free Dox (or Dox released from the conjugates) and peptide-conjugate Dox using an Agilent Zorbax SB-C18 (4.6 × 150 mm) column. The column was equilibrated with 0.1% TFA-water (solvent A). The elution was performed at a flow rate of 1 mL/min using a gradient of acetonitrile from 0 to 35% in 50 min, with the absorbance measured at 490 nm.

SK-OV-3 cells [8] = experiment: Confocal microscopy uptake and retention in SK-OV-3 cells; format: cell-based, human; details: SK-OV-3, 5 μM, 3 h then 24 h in media
Method: as §2, with “The cells were treated with Dox and peptide-Dox conjugate (5 μM) in opti-MEM for 24 h.” left out

H9C2 myocardium cells = details: 24 h, MTS, n = 3
Method: The cells were seeded in a complete growth medium 24 h prior to the experiment. […] The incubation was continued for 3 h.

MDA-MB-231 cells [9] = experiment: FACS cellular uptake with endocytosis inhibitors in MDA-MB-231 cells; format: cell-based, human; details: MDA-MB-231, conjugate 5 µM, 3 h, flow cytometry, n = 3
Method: A flow cytometry study was conducted in the presence of endocytosis inhibitors such as nystatin, chlorpromazine, chloroquine, and methyl β-cyclodextrin to determine whether the cellular uptake for the peptide-Dox was endocytosis-dependent. MDA-MB-231 (5 × 10^5 cells/well) were seeded in the medium 24 h prior to the experiment in six well plates, and after 24 h the medium was changed with opti-MEM. […] The cells were then incubated with [(WR)8WKβA]-Dox conjugate (5 µM) in the presence of inhibitors for 3 h. After 3 h incubation, the media containing the compounds were removed. Next, the cells were digested with 0.05% trypsin/EDTA (0.53 mM) for 5 min to remove any artificial surface binding, centrifuged at 2500 RPM for 5 min with Fisher Scientific accuSpin Micro 17, and then collected as the precipitant. Then the cells were washed two times with PBS, resuspended in flow cytometry buffer, and transferred to the flow cytometry tubes through the 35 µm Strainer Mesh cap. Finally, the cells were analyzed by flow cytometry (FACSCalibur: Becton Dickinson, San Jose, CA, USA) using the Propidium Iodide channel and CellQuest software. The data presented were based on the mean fluorescence intensity for 10,000 cells collected. All assays were performed in triplicate.

CCRF-CEM cells = details: conjugate 5 μM for 4 h at 37 °C, then drug-free medium, HPLC AUC
Method: Intracellular hydrolysis of [(WR)8WKβA]-Dox and accumulation of free Dox and the peptide–Dox conjugate were determined in CCRF-CEM cells by HPLC analysis. Cells were grown with serum-free RPMI medium in 75 cm^2 culture flasks to ∼70–80% confluence (1.37 × 10^7 cells/mL). The medium was first replaced with fresh RPMI medium having [(WR)8WKβA]-Dox conjugate (5 μM). Then the cells were incubated for 4 h at 37 °C. After 4 h, the medium containing the conjugate was aspirated, and cells were washed three times with PBS before adding a fresh serum-free medium. The cells were first partitioned/transferred to culture plates (six wells) contained 1.37 × 10^7 cells per well in 5 mL of medium, then incubated for the indicated time. After incubation, the cells were collected using centrifugation. After centrifugation, the medium was removed by decantation. The cell pellets were washed with ice-cold PBS to remove any remaining medium. The cell pellets were then completely extracted with an equal volume of methanol, chloroform, and isopropanol mixture (4:3:1 v/v/v) and finally filtered through 0.2 μm filters. The relative amount of Dox and [(WR)8WKβA]-Dox concentrations in cell lysates were quantified by analytical HPLC using the water/acetonitrile solvent.

in vitro = details: human, 25% human serum
Method: Human serum (250 μL) was diluted by adding sterile water (650 μL) and conjugate stock solution (100 μL) to give a sample with 25% human serum and 5 μM conjugate. The sample was kept at 37 °C in an incubator to mimic human body temperature. At regular time intervals, aliquots (100 μL) were taken and diluted with methanol (200 μL). After centrifugation (7000 RPM) of the mixture for 10 min, the supernatant was analyzed by analytical HPLC at 495 nm, and the major HPLC peaks were analyzed by mass spectrometry. The mobile phase used was acetonitrile/water with 0.1% TFA, with a gradient of 20–45% and a flow rate of 1 mL/min in 50 min. The percentage of intact conjugate and the release of the free drug were plotted against incubation time. The AUC obtained after each run was used to confirm the conjugate’s degradation, and t1/2 (the time needed to hydrolyze half of the initial conjugate in human serum) was calculated from the graph plotted as AUC versus incubation time.

MES-SA/MX2 cells [10] = experiment: Confocal microscopy internalization in MES-SA/MX2 cells; format: cell-based; details: MES-SA/MX2, 5 μM, 24 h
Method: as §2

[11] = chlorpromazine 30 μM, methyl-β-cyclodextrin 2.5 mM

In the case of `COc1cccc2c1C(=O)c1c(O)c3c(c(O)c1C2=O)C[C@@](O)(C(=O)CO)C[C@@H]3O[C@H]1C[C@H](N)[C@H](O)[C@H](C)O1` [Dox, Doxorubicin], the “reduction of MCF-7 cell proliferation” value (MCF-7 cells; 5 µM, 24 h) is reported as 21%, the “reduction of MCF-7 cell proliferation” value (MCF-7 cells; 5 µM, 72 h) is reported as 57% and the “uptake in heart cells by confocal microscopy” value (H9C2 cells) is reported as “high uptake”. For the same molecule, the “inhibition of MES-SA/MX2 cell viability / proliferation” value (MES-SA/MX2 cells [1]; 5 μM, 72 h) was 15%, the “efficiency of free Dox against MES-SA/MX2” value (MES-SA/MX2 cells [1]; 1, 5, 10 or 20 µM) was “did not show significant efficiency” and the IC50 [2] was 65 ± 7 µM. For the same molecule, the “reduction of SK-OV-3 cell viability” value (SK-OV-3 cells [3]) was 35%, the MDA-MB-231 cell viability (MDA-MB-231 cells [4]; 24 h) was 79% and the “inhibition of MDA-MB-231 cell viability / proliferation” value (MDA-MB-231 cells [4]; 5 μM, 72 h) was 63%. The MDA-MB-231 cell viability (MDA-MB-231 cells [4]; 72 h) was 37%.
For `N=C(N)NCCC[C@@H]1NC(=O)[C@H](Cc2c[nH]c3ccccc23)NC(=O)[C@H](CCCNC(=N)N)NC(=O)[C@H](Cc2c[nH]c3ccccc23)NC(=O)[C@H](CCCNC(=N)N)NC(=O)[C@H](Cc2c[nH]c3ccccc23)NC(=O)[C@H](CCCNC(=N)N)NC(=O)[C@H](Cc2c[nH]c3ccccc23)NC(=O)[C@H](CCCNC(=N)N)NC(=O)[C@H](Cc2c[nH]c3ccccc23)NC(=O)[C@H](CCCNC(=N)N)NC(=O)[C@H](Cc2c[nH]c3ccccc23)NC(=O)[C@H](CCCNC(=N)N)NC(=O)[C@H](Cc2c[nH]c3ccccc23)NC(=O)[C@H](CCCNC(=N)N)NC(=O)[C@H](Cc2c[nH]c3ccccc23)NC(=O)[C@H](CCCNC(=N)N)NC(=O)[C@H](Cc2c[nH]c3ccccc23)NC1=O` [[WR]9] (HELM PEPTIDE1{R.W.R.W.R.W.R.W.R.W.R.W.R.W.R.W.R.W}$PEPTIDE1,PEPTIDE1,1:R1-18:R2$$$V2.0), the “effect of [WR]9 alone on MCF-7 cell survival” value (MCF-7 cells; different concentrations (1, 5, 10 μM)) is given as “no significant effect on cell survival”, the “enhancement of cellular uptake of F′-GpYEEI” value [5] is given as 20 fold and the “antiproliferative effect of [WR]9 alone on MES-SA/MX2” value (MES-SA/MX2 cells [1]; 24 and 72 h) is given as “no significant antiproliferative effect”.
With `COc1cccc2c1C(=O)c1c(O)c3c(c(O)c1C2=O)C[C@@](O)(C(=O)COC(=O)CCCC(=O)NCCC(=O)NCCCC[C@@H]1NC(=O)[C@H](Cc2c[nH]c4ccccc24)NC(=O)[C@H](CCCNC(=N)N)NC(=O)[C@H](Cc2c[nH]c4ccccc24)NC(=O)[C@H](CCCNC(=N)N)NC(=O)[C@H](Cc2c[nH]c4ccccc24)NC(=O)[C@H](CCCNC(=N)N)NC(=O)[C@H](Cc2c[nH]c4ccccc24)NC(=O)[C@H](CCCNC(=N)N)NC(=O)[C@H](Cc2c[nH]c4ccccc24)NC(=O)[C@H](CCCNC(=N)N)NC(=O)[C@H](Cc2c[nH]c4ccccc24)NC(=O)[C@H](CCCNC(=N)N)NC(=O)[C@H](Cc2c[nH]c4ccccc24)NC(=O)[C@H](CCCNC(=N)N)NC(=O)[C@H](Cc2c[nH]c4ccccc24)NC(=O)[C@H](CCCNC(=N)N)NC(=O)[C@H](Cc2c[nH]c4ccccc24)NC1=O)C[C@@H]3O[C@H]1C[C@H](N)[C@H](O)[C@H](C)O1` [[(WR)8WKβA]-Dox conjugate] (HELM PEPTIDE1{K.W.R.W.R.W.R.W.R.W.R.W.R.W.R.W.R.W}|PEPTIDE2{[COc1cccc2c1C(=O)c1c(O)c3c(c(O)c1C2=O)C[C@@](O)(C(=O)COC(=O)CCCC(=O)[*:2])C[C@@H]3O[C@H]1C[C@H](N)[C@H](O)[C@H](C)O1].[bAla]}$PEPTIDE1,PEPTIDE2,1:R3-2:R2|PEPTIDE1,PEPTIDE1,1:R1-18:R2$$$V2.0) the “uptake reduction in presence of chlorpromazine and methyl-β-cyclodextrin” value (MES-SA/MX2 cells [6]; [11]) was “statistically significant”, the “cellular uptake in presence of nystatin and chloroquine” value (MES-SA/MX2 cells [6]; nystatin 50 μg/mL, chloroquine 100 μM) was “not reduced significantly” and the “reduction of MCF-7 cell proliferation” value (MCF-7 cells; 1 µM, 24 h) was 28%. For the same molecule, the “reduction of MCF-7 cell proliferation” value (MCF-7 cells; 1 µM, 72 h) was 70%, the “reduction of MCF-7 cell proliferation” value (MCF-7 cells; 5 µM, 24 h) was 55% and the “reduction of MCF-7 cell proliferation” value (MCF-7 cells; 10 µM, 24 h) was 56%. For the same molecule, the “reduction of MCF-7 cell proliferation” value (MCF-7 cells; 10 µM, 72 h) was 77%, the “uptake in heart cells by confocal microscopy” value (H9C2 cells) was “did not show any significant uptake” and the “total concentration of Dox (conjugated and released) in the nucleus” value (MDA-MB-231 cells [7]) was “higher than free Dox”. For the same molecule, the “cellular uptake, retention and localization of Dox” value (SK-OV-3 cells [8]) was “increased the cellular uptake and retention of Dox”, the “cytotoxicity in rat H9C2 myocardium cells” value (H9C2 myocardium cells; 10 µM) was “comparable to Dox” and the “cytotoxicity in rat H9C2 myocardium cells” value (H9C2 myocardium cells; 1 and 5 µM) was “no significant cytotoxicity”. The “cellular uptake in presence of chlorpromazine and methyl-β-cyclodextrin” value (MDA-MB-231 cells [9]; [11]) was “slight uptake reduction”, the “cellular uptake in presence of nystatin and chloroquine” value (MDA-MB-231 cells [9]; nystatin 50 μg/mL, chloroquine 100 μM, 30 min preincubation) was “not reduced significantly” and the “free Dox released intracellularly” value (CCRF-CEM cells; within 12 h) was “More than 36%”. The “free Dox released intracellularly” value (CCRF-CEM cells; within 72 h) was “approximately 100%”, the metabolised at 1 h, 5 µM (in vitro) was 7% and the metabolised at 6 h, 5 µM (in vitro) was ~50%. The metabolised at 12 h, 5 µM (in vitro) was > 80%, the remaining at 24 h, 5 µM (in vitro) was 6% and the “internalization into resistant cells overexpressing P-gp” value (MES-SA/MX2 cells [10]) was “internalized”.
